Values joined by “and” are separate entries in the source; they are usually repeats but may differ in a detail not shown here. Equal entries are not always repeated. Toxic doses and inconclusive results are not listed.

This assay relates to CD2F1 mice, L1210 leukemia ip, survival T/C. Kind of assay: NCI In Vivo Anticancer Drug Screen. Data for tumor model L1210 Leukemia (intraperitoneal) in CD2F1 (CDF1) mice. Particulars: higher = longer survival. In a few lines: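 Each value reflects a quotient of treated over vehicle control outcomes in mice with a transplanted tumor.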
Where [1] appears, read: endpoint: mean survival time, dose: 100.0 mg/kg/injection, schedule: Q01DX009 (ip), vehicle: saline with Tween-80.
Setting [2] is: endpoint: mean survival time, dose: 200.0 mg/kg/injection, schedule: Q01DX009 (ip), vehicle: saline with Tween-80.
[3] abbreviates: endpoint: mean survival time, dose: 400.0 mg/kg/injection, schedule: Q01DX009 (ip), vehicle: saline with Tween-80.
[4] abbreviates: endpoint: mean survival time, dose: 6.25 mg/kg/injection, schedule: Q01DX009 (ip), vehicle: saline with Tween-80.
Where [5] appears, read: endpoint: mean survival time, dose: 12.5 mg/kg/injection, schedule: Q01DX009 (ip), vehicle: saline with Tween-80.
[6] abbreviates: endpoint: mean survival time, dose: 25.0 mg/kg/injection, schedule: Q01DX009 (ip), vehicle: saline with Tween-80.
Setting [7] is: endpoint: mean survival time, dose: 50.0 mg/kg/injection, schedule: Q01DX009 (ip), vehicle: saline with Tween-80.
[8] abbreviates: endpoint: mean survival time, dose: 100.0 mg/kg/injection, schedule: Q04DX002 (ip), vehicle: saline with Tween-80.
[9] abbreviates: endpoint: mean survival time, dose: 200.0 mg/kg/injection, schedule: Q04DX002 (ip), vehicle: saline with Tween-80.
[10] abbreviates: endpoint: mean survival time, dose: 400.0 mg/kg/injection, schedule: Q04DX002 (ip), vehicle: saline with Tween-80.
The mark [11] stands for this setting: endpoint: mean survival time, dose: 25.0 mg/kg/injection, schedule: Q01DX009 (ip), vehicle: Klucel (hydroxypropylcellulose) (HPC).
Setting [12] is: endpoint: mean survival time, dose: 50.0 mg/kg/injection, schedule: Q01DX009 (ip), vehicle: Klucel (hydroxypropylcellulose) (HPC).
Where [13] appears, read: endpoint: mean survival time, dose: 100.0 mg/kg/injection, schedule: Q01DX009 (ip), vehicle: Klucel (hydroxypropylcellulose) (HPC).
[14] abbreviates: endpoint: mean survival time, dose: 100.0 mg/kg/injection, schedule: Q04DX003 (ip), vehicle: saline with Tween-80.
[15] abbreviates: endpoint: mean survival time, dose: 200.0 mg/kg/injection, schedule: Q04DX003 (ip), vehicle: saline with Tween-80.
[16] abbreviates: endpoint: mean survival time, dose: 400.0 mg/kg/injection, schedule: Q04DX003 (ip), vehicle: saline with Tween-80.

For the compound `[Cl][Pt+2][Cl].[NH-]C(c1ccccc1)C([NH-])c1ccccc1` (stereo not drawn), the T/C is, setting by setting: (endpoint: mean survival time, dose: 6.25 mg/kg/injection, schedule: Q04DX003 (ip), vehicle: saline with Tween-80) 112 % of control and 110 % of control and 96 % of control; (endpoint: mean survival time, dose: 12.5 mg/kg/injection, schedule: Q04DX003 (ip), vehicle: saline with Tween-80) 102 % of control and 114 % of control and 106 % of control; (endpoint: mean survival time, dose: 25.0 mg/kg/injection, schedule: Q04DX003 (ip), vehicle: saline with Tween-80) 120 % of control and 124 % of control and 114 % of control; (endpoint: median survival time, dose: 10.0 mg/kg/injection, schedule: Q04DX003 (ip), vehicle: Klucel (hydroxypropylcellulose) (HPC)) 111 % of control; (endpoint: median survival time, dose: 20.0 mg/kg/injection, schedule: Q04DX003 (ip), vehicle: Klucel (hydroxypropylcellulose) (HPC)) 113 % of control; (endpoint: median survival time, dose: 40.0 mg/kg/injection, schedule: Q04DX003 (ip), vehicle: Klucel (hydroxypropylcellulose) (HPC)) 122 % of control. Moreover, the T/C reads like this: (endpoint: median survival time, dose: 50.0 mg/kg/injection, schedule: Q04DX003 (ip), vehicle: Klucel (hydroxypropylcellulose) (HPC)) 101 % of control; (endpoint: median survival time, dose: 80.0 mg/kg/injection, schedule: Q04DX003 (ip), vehicle: Klucel (hydroxypropylcellulose) (HPC)) 112 % of control; (endpoint: median survival time, dose: 100.0 mg/kg/injection, schedule: Q04DX003 (ip), vehicle: Klucel (hydroxypropylcellulose) (HPC)) 107 % of control; (endpoint: median survival time, dose: 200.0 mg/kg/injection, schedule: Q04DX003 (ip), vehicle: Klucel (hydroxypropylcellulose) (HPC)) 107 % of control.
As for `CCOC(=O)C(Cc1cccc2ccccc12)P(=O)(OCC)OCC` (stereo not drawn), the T/C (endpoint: mean survival time, dose: 100.0 mg/kg/injection, schedule: Q01DX001 (ip), vehicle: saline) was 108 % of control; the T/C (endpoint: mean survival time, dose: 200.0 mg/kg/injection, schedule: Q01DX001 (ip), vehicle: saline) was 108 % of control; the T/C (endpoint: mean survival time, dose: 400.0 mg/kg/injection, schedule: Q01DX001 (ip), vehicle: saline) was 106 % of control.
For `CC(=O)CC(C)=Nc1ccc([N+](=O)[O-])cc1`, the T/C was 90 % of control under setting [1], 93 % of control under setting [2] and 90 % of control under setting [3].
With `CC(O)C(NC(=O)c1cnc(OCc2ccccc2)nc1N)C(=O)O` (stereo not drawn), the T/C by setting is: under setting [4], 104 % of control; under setting [5], 100 % of control; under setting [6], 104 % of control.
As for `CC1(C)CC1(Br)Br`, the T/C runs as follows: under setting [4], 94 % of control and 112 % of control; under setting [5], 94 % of control and 106 % of control; under setting [6], 102 % of control and 112 % of control; under setting [7], 100 % of control and 110 % of control; under setting [1], 93 % of control and 106 % of control; under setting [2], 97 % of control and 100 % of control.
As for `O=C(N/N=C/c1ccc2c(c1)OCO2)c1cccc(C(F)(F)F)c1`, the T/C under setting [5] was 95 % of control; the T/C under setting [6] was 91 % of control; the T/C under setting [7] is 91 % of control and 104 % of control; the T/C under setting [2] is 89 % of control.
Take `COc1ccc(NC(=O)Oc2c(Cl)cc(Cl)c3ccccc23)cc1`: the T/C reads like this: under setting [8], 93 % of control; under setting [9], 93 % of control; under setting [10], 101 % of control.
`O=Cc1ccccc1`: the T/C reads like this: (endpoint: mean survival time, dose: 12.5 mg/kg/injection, schedule: Q01DX009 (ip), vehicle: Klucel (hydroxypropylcellulose) (HPC)) 101 % of control; under setting [11], 95 % of control and 102 % of control; under setting [12], 96 % of control and 100 % of control; under setting [13], 97 % of control and 102 % of control; (endpoint: mean survival time, dose: 200.0 mg/kg/injection, schedule: Q01DX009 (ip), vehicle: Klucel (hydroxypropylcellulose) (HPC)) 97 % of control and 105 % of control; (endpoint: mean survival time, dose: 400.0 mg/kg/injection, schedule: Q01DX009 (ip), vehicle: Klucel (hydroxypropylcellulose) (HPC)) 92 % of control and 93 % of control.
Turning to `[C-]#[N+]CCS(=O)(=O)CC[N+]#[C-]`, the T/C was 94 % of control under setting [1]; 102 % of control under setting [14]; 94 % of control under setting [2]; 102 % of control under setting [15]; 100 % of control under setting [3]; 89 % of control under setting [16].
Take `CN(C)C1(Cc2ccccc2)c2ccccc2-c2ccc(Br)cc21` (stereo not drawn): the T/C is 89 % of control under setting [14] and 87 % of control under setting [15].
With `O=S(=O)(NC(=S)Nc1ccc(Cl)cc1)c1ccccc1`, the T/C was 93 % of control under setting [1] and 109 % of control under setting [2].
In the case of `Cn1ccc(=Nc2ccc(NC(=O)c3ccc(N=c4ccn(C)c5ccc([N+](=O)[O-])cc45)cc3)cc2)cc1`, the T/C runs as follows: (endpoint: mean survival time, dose: 1.56 mg/kg/injection, schedule: Q01DX009 (ip), vehicle: water) 106 % of control; (endpoint: mean survival time, dose: 3.13 mg/kg/injection, schedule: Q01DX009 (ip), vehicle: water) 112 % of control; (endpoint: mean survival time, dose: 6.25 mg/kg/injection, schedule: Q01DX009 (ip), vehicle: water) 124 % of control; (endpoint: mean survival time, dose: 12.5 mg/kg/injection, schedule: Q01DX009 (ip), vehicle: water) 181 % of control; (endpoint: mean survival time, dose: 25.0 mg/kg/injection, schedule: Q01DX009 (ip), vehicle: water) 227 % of control.
For `COc1cccc2c1C(=O)c1c(O)c3c(c(O)c1C2=O)CC(O)(C(C)=O)CC3OC1CC(N)C(O)C(C)O1` (stereo not drawn), the T/C is, setting by setting: (endpoint: mean survival time, dose: 0.25 mg/kg/injection, schedule: Q01DX001 (ip), vehicle: saline) 112 % of control; (endpoint: mean survival time, dose: 0.5 mg/kg/injection, schedule: Q01DX001 (ip), vehicle: saline) 109 % of control; (endpoint: mean survival time, dose: 0.63 mg/kg/injection, schedule: Q01DX009 (ip), vehicle: water) 105 % of control; (endpoint: mean survival time, dose: 1.0 mg/kg/injection, schedule: Q01DX001 (ip), vehicle: saline) 115 % of control; (endpoint: mean survival time, dose: 1.25 mg/kg/injection, schedule: Q01DX009 (ip), vehicle: water) 108 % of control; (endpoint: mean survival time, dose: 2.0 mg/kg/injection, schedule: Q01DX001 (ip), vehicle: saline) 121 % of control. For the same compound, the T/C is, setting by setting: (endpoint: mean survival time, dose: 2.5 mg/kg/injection, schedule: Q01DX009 (ip), vehicle: water) 115 % of control and 105 % of control; (endpoint: mean survival time, dose: 5.0 mg/kg/injection, schedule: Q01DX009 (ip), vehicle: water) 105 % of control; (endpoint: mean survival time, dose: 10.0 mg/kg/injection, schedule: Q01DX009 (ip), vehicle: water) 117 % of control; (endpoint: mean survival time, dose: 20.0 mg/kg/injection, schedule: Q01DX009 (ip), vehicle: water) 117 % of control and 105 % of control; (endpoint: mean survival time, dose: 40.0 mg/kg/injection, schedule: Q01DX009 (ip), vehicle: water) 117 % of control; (endpoint: mean survival time, dose: 80.0 mg/kg/injection, schedule: Q01DX009 (ip), vehicle: water) 105 % of control.
Regarding `c1cc(OCC2CO2)ccc1OCC1CO1` (stereo not drawn), the T/C under setting [11] is 110 % of control, the T/C under setting [12] is 107 % of control and the T/C under setting [13] was 113 % of control.
For the compound `COC(=O)c1ccc(OC(=O)Nc2ccc(N(CCCl)CCCl)cc2)cc1`, where the note is “endpoint: mean survival time, dose: 50.0 mg/kg/injection, schedule: Q01DX001 (ip), vehicle: Klucel (hydroxypropylcellulose) (HPC)”, the T/C was 95 % of control.
For `Cc1nc(N)nc(N)n1`, the T/C runs as follows: under setting [14], 100 % of control; under setting [15], 100 % of control; under setting [16], 97 % of control.
`CCO/C=C1\SC(=S)N(C)C1=O`: the T/C (endpoint: mean survival time, dose: 15.0 mg/kg/injection, schedule: Q01DX009 (ip), vehicle: saline with Tween-80) is 90 % of control; the T/C (endpoint: mean survival time, dose: 30.0 mg/kg/injection, schedule: Q01DX009 (ip), vehicle: saline with Tween-80) was 87 % of control; the T/C (endpoint: mean survival time, dose: 60.0 mg/kg/injection, schedule: Q01DX009 (ip), vehicle: saline with Tween-80) is 98 % of control.
In the case of `CC(CCOP(N)(=O)N(CCCl)CCCl)OCc1ccccc1` (stereo not drawn), the T/C (endpoint: mean survival time, dose: 25.0 mg/kg/injection, schedule: Q01DX001 (ip), vehicle: other) was 98 % of control; the T/C (endpoint: mean survival time, dose: 50.0 mg/kg/injection, schedule: Q01DX001 (ip), vehicle: other) is 101 % of control; the T/C (endpoint: mean survival time, dose: 100.0 mg/kg/injection, schedule: Q01DX001 (ip), vehicle: other) is 106 % of control; the T/C (endpoint: mean survival time, dose: 200.0 mg/kg/injection, schedule: Q01DX001 (ip), vehicle: other) is 115 % of control; the T/C (endpoint: mean survival time, dose: 500.0 mg/kg/injection, schedule: Q01DX001 (ip), vehicle: other) is 118 % of control.
For the compound `CN(C)C(=S)Oc1ccc(S(=O)(=O)F)cc1F`, the T/C is 93 % of control under setting [8], 93 % of control under setting [9] and 104 % of control under setting [10].

Source of the values: PubChem BioAssay AID256 (DTP/NCI, 2004).
